PubChem BioAssay AID250 (DTP/NCI, 2004)
Several values for one entry are separate records, joined by “and”; a condition that tells them apart may be missing. Equal values may be shown once. Toxic doses and inconclusive results are not listed.

Test system: BDF1 mice, L1210 leukemia sc, survival T/C
Test: NCI In Vivo Anticancer Drug Screen. Data for tumor model L1210 Leukemia (subcutaneous) in B6D2F1 (BDF1) mice
Conditions: higher = longer survival
Summary of the method: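 Expressed as T/C: measurement in compound-treated, tumor-bearing mice relative to vehicle-treated control mice, based on survival or tumor size.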

Question: With `O=P1(N(CCCl)CCCl)NCCCO1` (centres undefined) as the molecule, how does the T/C (endpoint: mean survival time, dose: 70.0 mg/kg/injection, schedule: Q01DX001 (ip), vehicle: saline) read?
Answer: 161 % of control

Question: What about the T/C (endpoint: mean survival time, dose: 100.0 mg/kg/injection, schedule: Q08DX003 (sc), vehicle: saline) of the same molecule?
Answer: 190 % of control

Question: And the T/C (endpoint: mean survival time, dose: 140.0 mg/kg/injection, schedule: Q01DX001 (ip), vehicle: saline)?
Answer: 180 % of control

Question: What about the T/C (endpoint: mean survival time, dose: 200.0 mg/kg/injection, schedule: Q01DX001 (ip), vehicle: saline) of the same molecule?
Answer: 219 % of control

Question: And the T/C (endpoint: mean survival time, dose: 200.0 mg/kg/injection, schedule: Q08DX003 (sc), vehicle: saline)?
Answer: 221 % of control

Question: And the T/C (endpoint: mean survival time, dose: 280.0 mg/kg/injection, schedule: Q01DX001 (ip), vehicle: saline)?
Answer: 232 % of control

Question: And the T/C (endpoint: mean survival time, dose: 400.0 mg/kg/injection, schedule: Q08DX003 (sc), vehicle: saline)?
Answer: 171 % of control

Question: What about the T/C (endpoint: mean survival time, dose: 560.0 mg/kg/injection, schedule: Q01DX001 (ip), vehicle: saline) of the same molecule?
Answer: 91 % of control

Question: What about the T/C (endpoint: median survival time, dose: 6.25 mg/kg/injection, schedule: Q01DX009 (ip), vehicle: saline) of the same molecule?
Answer: 104 % of control

Question: And the T/C (endpoint: median survival time, dose: 6.25 mg/kg/injection, schedule: Q01DX009 (sc), vehicle: saline)?
Answer: 98 % of control and 101 % of control

Question: What about the T/C (endpoint: median survival time, dose: 8.4 mg/kg/injection, schedule: Q01DX Z (ip), vehicle: saline) of the same molecule?
Answer: 100 % of control

Question: And the T/C (endpoint: median survival time, dose: 10.8 mg/kg/injection, schedule: Q01DX001 (ip), vehicle: saline)?
Answer: 150 % of control

Question: What about the T/C (endpoint: median survival time, dose: 12.5 mg/kg/injection, schedule: Q01DX009 (sc), vehicle: saline) of the same molecule?
Answer: 107 % of control and 112 % of control

Question: And the T/C (endpoint: median survival time, dose: 14.0 mg/kg/injection, schedule: Q01DX Z (ip), vehicle: saline)?
Answer: 110 % of control and 117 % of control

Question: And the T/C (endpoint: median survival time, dose: 14.0 mg/kg/injection, schedule: Q01DX Z (oral), vehicle: saline)?
Answer: 104 % of control

Question: And the T/C (endpoint: median survival time, dose: 14.0 mg/kg/injection, schedule: Q01DX Z (sc), vehicle: other)?
Answer: 110 % of control

Question: What about the T/C (endpoint: median survival time, dose: 14.0 mg/kg/injection, schedule: Q#A X Z (sc), vehicle: saline) of the same molecule?
Answer: 220 % of control

Question: And the T/C (endpoint: median survival time, dose: 18.0 mg/kg/injection, schedule: Q01DX001 (ip), vehicle: saline)?
Answer: 200 % of control

Question: What about the T/C (endpoint: median survival time, dose: 23.0 mg/kg/injection, schedule: Q01DX Z (ip), vehicle: saline) of the same molecule?
Answer: 165 % of control

Question: What about the T/C (endpoint: median survival time, dose: 23.0 mg/kg/injection, schedule: Q01DX Z (oral), vehicle: saline) of the same molecule?
Answer: 120 % of control

Question: What about the T/C (endpoint: median survival time, dose: 23.0 mg/kg/injection, schedule: Q01DX Z (sc), vehicle: other) of the same molecule?
Answer: 195 % of control

Question: What about the T/C (endpoint: median survival time, dose: 23.0 mg/kg/injection, schedule: Q## X Z (sc), vehicle: saline) of the same molecule?
Answer: 110 % of control

Question: What about the T/C (endpoint: median survival time, dose: 25.0 mg/kg/injection, schedule: Q01DX009 (ip), vehicle: saline) of the same molecule?
Answer: 122 % of control

Question: And the T/C (endpoint: median survival time, dose: 39.0 mg/kg/injection, schedule: Q01DX Z (ip), vehicle: saline)?
Answer: 243 % of control

Question: What about the T/C (endpoint: median survival time, dose: 39.0 mg/kg/injection, schedule: Q01DX Z (oral), vehicle: saline) of the same molecule?
Answer: 155 % of control and 215 % of control and 221 % of control

Question: And the T/C (endpoint: median survival time, dose: 39.0 mg/kg/injection, schedule: Q02DX Z (sc), vehicle: saline)?
Answer: 225 % of control

Question: And the T/C (endpoint: median survival time, dose: 39.0 mg/kg/injection, schedule: Q07DX Z (sc), vehicle: saline)?
Answer: 113 % of control and 115 % of control and 123 % of control

Question: And the T/C (endpoint: median survival time, dose: 39.0 mg/kg/injection, schedule: Q## X Z (sc), vehicle: saline)?
Answer: 150 % of control

Question: And the T/C (endpoint: median survival time, dose: 39.0 mg/kg/injection, schedule: Q#A X Z (sc), vehicle: saline)?
Answer: 230 % of control

Question: And the T/C (endpoint: median survival time, dose: 50.0 mg/kg/injection, schedule: Q01DX009 (ip), vehicle: saline)?
Answer: 162 % of control

Question: And the T/C (endpoint: median survival time, dose: 50.0 mg/kg/injection, schedule: Q01DX009 (sc), vehicle: saline)?
Answer: 163 % of control and 181 % of control

Question: And the T/C (endpoint: median survival time, dose: 50.0 mg/kg/injection, schedule: Q08DX003 (sc), vehicle: saline)?
Answer: 122 % of control

Question: And the T/C (endpoint: median survival time, dose: 65.0 mg/kg/injection, schedule: Q01DX Z (ip), vehicle: saline)?
Answer: 213 % of control

Question: And the T/C (endpoint: median survival time, dose: 65.0 mg/kg/injection, schedule: Q01DX Z (oral), vehicle: saline)?
Answer: 161 % of control and 182 % of control

Question: What about the T/C (endpoint: median survival time, dose: 65.0 mg/kg/injection, schedule: Q01DX Z (sc), vehicle: other) of the same molecule?
Answer: 240 % of control

Question: What about the T/C (endpoint: median survival time, dose: 65.0 mg/kg/injection, schedule: Q07DX Z (sc), vehicle: saline) of the same molecule?
Answer: 165 % of control and 175 % of control

Question: And the T/C (endpoint: median survival time, dose: 65.0 mg/kg/injection, schedule: Q#A X Z (sc), vehicle: saline)?
Answer: 150 % of control

Question: What about the T/C (endpoint: median survival time, dose: 69.0 mg/kg/injection, schedule: Q07DX003 (sc), vehicle: saline) of the same molecule?
Answer: 188 % of control and 190 % of control

Question: And the T/C (endpoint: median survival time, dose: 100.0 mg/kg/injection, schedule: Q07DX003 (sc), vehicle: saline)?
Answer: 244 % of control

Question: And the T/C (endpoint: median survival time, dose: 100.0 mg/kg/injection, schedule: Q07DX004 (sc), vehicle: saline)?
Answer: 211 % of control and 213 % of control

Question: And the T/C (endpoint: median survival time, dose: 100.0 mg/kg/injection, schedule: Q16DX002 (sc), vehicle: saline)?
Answer: 157 % of control and 161 % of control (2×)

Question: What about the T/C (endpoint: median survival time, dose: 100.0 mg/kg/injection, schedule: Q## X002 (sc), vehicle: saline) of the same molecule?
Answer: 155 % of control

Question: What about the T/C (endpoint: median survival time, dose: 108.0 mg/kg/injection, schedule: Q01DX001 (sc), vehicle: other) of the same molecule?
Answer: 160 % of control

Question: And the T/C (endpoint: median survival time, dose: 108.0 mg/kg/injection, schedule: Q01DX014 (sc), vehicle: saline)?
Answer: 163 % of control

Question: What about the T/C (endpoint: median survival time, dose: 108.0 mg/kg/injection, schedule: Q01DX Z (ip), vehicle: saline) of the same molecule?
Answer: 113 % of control

Question: What about the T/C (endpoint: median survival time, dose: 108.0 mg/kg/injection, schedule: Q01DX Z (oral), vehicle: saline) of the same molecule?
Answer: 208 % of control and 240 % of control

Question: And the T/C (endpoint: median survival time, dose: 108.0 mg/kg/injection, schedule: Q01DX Z (sc), vehicle: other)?
Answer: 180 % of control

Question: What about the T/C (endpoint: median survival time, dose: 108.0 mg/kg/injection, schedule: Q07DX Z (sc), vehicle: saline) of the same molecule?
Answer: 171 % of control

Question: And the T/C (endpoint: median survival time, dose: 108.0 mg/kg/injection, schedule: Q08DX003 (ip), vehicle: saline)?
Answer: 109 % of control

Question: And the T/C (endpoint: median survival time, dose: 180.0 mg/kg/injection, schedule: Q01DX001 (sc), vehicle: other)?
Answer: 191 % of control

Question: And the T/C (endpoint: median survival time, dose: 180.0 mg/kg/injection, schedule: Q01DX014 (sc), vehicle: saline)?
Answer: 217 % of control

Question: And the T/C (endpoint: median survival time, dose: 180.0 mg/kg/injection, schedule: Q02DX Z (sc), vehicle: saline)?
Answer: 170 % of control

Question: What about the T/C (endpoint: median survival time, dose: 180.0 mg/kg/injection, schedule: Q07DX Z (sc), vehicle: saline) of the same molecule?
Answer: 195 % of control and 226 % of control

Question: And the T/C (endpoint: median survival time, dose: 180.0 mg/kg/injection, schedule: Q08DX003 (ip), vehicle: saline)?
Answer: 121 % of control

Question: And the T/C (endpoint: median survival time, dose: 200.0 mg/kg/injection, schedule: Q01DX001 (ip), vehicle: saline)?
Answer: 200 % of control and 205 % of control

Question: What about the T/C (endpoint: median survival time, dose: 200.0 mg/kg/injection, schedule: Q16DX002 (sc), vehicle: saline) of the same molecule?
Answer: 183 % of control and 206 % of control (2×)

Question: And the T/C (endpoint: median survival time, dose: 200.0 mg/kg/injection, schedule: Q## X002 (sc), vehicle: saline)?
Answer: 180 % of control

Question: And the T/C (endpoint: median survival time, dose: 256.0 mg/kg/injection, schedule: Q01DX001 (sc), vehicle: saline)?
Answer: 213 % of control and 215 % of control

Question: What about the T/C (endpoint: median survival time, dose: 300.0 mg/kg/injection, schedule: Q01DX001 (ip), vehicle: saline) of the same molecule?
Answer: 240 % of control and 242 % of control

Question: And the T/C (endpoint: median survival time, dose: 300.0 mg/kg/injection, schedule: Q01DX001 (sc), vehicle: other)?
Answer: 243 % of control

Question: And the T/C (endpoint: median survival time, dose: 300.0 mg/kg/injection, schedule: Q01HX002 (ip), vehicle: saline)?
Answer: 113 % of control

Question: What about the T/C (endpoint: median survival time, dose: 300.0 mg/kg/injection, schedule: Q07DX Z (sc), vehicle: saline) of the same molecule?
Answer: 217 % of control and 219 % of control

Question: What about the T/C (endpoint: median survival time, dose: 300.0 mg/kg/injection, schedule: Q08DX003 (ip), vehicle: saline) of the same molecule?
Answer: 113 % of control

Question: What about the T/C (endpoint: median survival time, dose: 300.0 mg/kg/injection, schedule: Q16DX002 (ip), vehicle: saline) of the same molecule?
Answer: 115 % of control

Question: And the T/C (endpoint: median survival time, dose: 320.0 mg/kg/injection, schedule: Q01DX001 (sc), vehicle: saline)?
Answer: 235 % of control and 240 % of control

Question: What about the T/C (endpoint: median survival time, dose: 400.0 mg/kg/injection, schedule: Q07DX004 (sc), vehicle: saline) of the same molecule?
Answer: 166 % of control

Question: And the T/C (endpoint: median survival time, dose: 400.0 mg/kg/injection, schedule: Q16DX002 (sc), vehicle: saline)?
Answer: 222 % of control and 239 % of control (2×)

Question: What about the T/C (endpoint: median survival time, dose: 400.0 mg/kg/injection, schedule: Q## X002 (sc), vehicle: saline) of the same molecule?
Answer: 220 % of control

Question: What about the T/C (endpoint: median survival time, dose: 500.0 mg/kg/injection, schedule: Q01DX001 (sc), vehicle: other) of the same molecule?
Answer: 217 % of control
